Ratio IC50 and Activity data for 2 molecules are collected here from ChEMBL document CHEMBL1142472, “New ferrocenic pyrrolo[1,2-a]quinoxaline derivatives: synthesis, and in vitro antimalarial activity” (Bioorg Med Chem, 2008).

For the assay, the target named is T1, Histidine-rich protein PFHRP-II (Plasmodium falciparum) (UniProt P05227).
T1 sequence (whole entry): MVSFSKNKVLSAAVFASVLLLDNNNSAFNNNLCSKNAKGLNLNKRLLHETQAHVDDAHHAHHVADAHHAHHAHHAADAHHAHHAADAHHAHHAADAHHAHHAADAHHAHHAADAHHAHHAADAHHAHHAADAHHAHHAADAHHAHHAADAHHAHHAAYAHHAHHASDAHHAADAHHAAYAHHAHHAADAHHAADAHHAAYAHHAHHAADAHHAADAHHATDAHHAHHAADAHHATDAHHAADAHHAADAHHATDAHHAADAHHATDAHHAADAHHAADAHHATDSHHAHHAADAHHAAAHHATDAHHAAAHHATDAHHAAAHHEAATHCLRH
Put plainly: Inhibition of beta-hematin formation assessed as drug: hematin molar ratio causing inhibition of hem polymerization after 24 hrs by HPIA method. It is filed as functional.

Active and inactive are the calls of the source. No cut-off for these calls is given here.

As for `C[C@@H]1CC[C@H]2[C@@H](C)C(=O)O[C@@H]3O[C@@]4(C)CC[C@@H]1[C@]32OO4`, the Ratio IC50 was determined as 1.5.

Consider `COc1cc(NS(=O)(=O)c2ccc(N)cc2)nc(OC)n1`, for which the outcome was inactive.
